Source: patent US5776948A, “Fluoroquinoline derivative” (Chugai Seiyaku Kabushiki Kaisha, priority 1992, dated 1998)
In brackets after ≈: the same amount, converted by molar mass. Read-outs that look alike come from different tables or passages of the source.

Columns and labels:
[1] = system: mouse lymphatic leukemia cell line L1210; experiment: Cytotoxicity test (MTT method); type: cell-based
Method: The 50% inhibitory concentrations (IC50) of the test compounds on a mouse lymphatic leukemia cell line L1210 were determined by the MTT [3-(4,5-dimethylthiazol-2-yl)-2,5-diphenyltetrazolium bromide] method.
Namely, 2×10^4 L1210 cells were incubated in 200 μl of a culture medium (RPMI-1640 medium containing 10% of fetal bovine serum) containing a two-fold serial dilution of a test compound at 37° C. for a day. Four hours before the completion of the incubation, 10 μl of a 5 mg/ml solution of MTT was added. When the incubation was completed, the culture medium was eliminated by sucking and the insoluble formazan, which had been reduced by the mitochondrial dehydrogenase of the cells, was extracted with 100 μl of dimethylsulfoxide. Then the absorbance was measured at 550 nm. The cell propagation ratio was expressed in the ratio of the formazan formation of the test lot to that of the control lot wherein cells were incubated in a medium free from any test compound. Then IC50 was determined by the probit method.

[2] = Phototoxicity test (UVA irradiation, MTT method); type: cell-based; parameters: dose or concentration left out as unconfirmed; conditions: mouse, l1210 cells; L1210, UVA 0.5 J, 2 days incubation; read-out: Phototoxicity (%; propagation ratio under 0.5 J-irradiation to non-irradiation lot)
Method: The phototoxicity was determined by enhancing the cytotoxicity of a test compound on L1210 via UV irradiation. […] After the irradiation, 100 μl of a culture medium was added and the cells were incubated at 37° C. for 2 days.

[3] = system: A. calcoaceticus IFO 12552; experiment: Antibacterial activity test, MIC by agar plate dilution method; type: cell-based; conditions: unit assumed
Method: (§1) The minimum inhibitory concentrations (MIC) of the test compounds were measured by the publicly known agar plate dilution method.

A. faecalis IFO 13111 = experiment: as above; type: cell-based; conditions: unit assumed
Method: as §1

B. cereus IFO 13494 = experiment: as above; type: cell-based; conditions: unit assumed
Method: as §1

B. subtilis ATCC 6633 = experiment: as above; type: cell-based; conditions: unit assumed
Method: as §1

C. freundii IFO 12681 = experiment: as above; type: cell-based; conditions: unit assumed
Method: as §1

CSJ 1922 = experiment: as above; type: cell-based; conditions: CSJ 1922 (listed under E. coli); unit assumed
Method: as §1

E. aeruginosa IFO 13534 = experiment: as above; type: cell-based; conditions: unit assumed
Method: as §1

E. cloacae IFO 3320 = experiment: as above; type: cell-based; conditions: unit assumed
Method: as §1

E. coli NIHJ JC-2 = experiment: as above; type: cell-based; conditions: unit assumed
Method: as §1

JU-5 = experiment: as above; type: cell-based; conditions: JU-5 (listed under S. aureus); unit assumed
Method: as §1

K. pneumoniae B-54 = experiment: as above; type: cell-based; conditions: unit assumed
Method: as §1

M. morganii IFO 3848 = experiment: as above; type: cell-based; conditions: unit assumed
Method: as §1

MRSA RN-10 = experiment: as above; type: cell-based; conditions: unit assumed
Method: as §1

P. aeruginosa GNB-139 = experiment: as above; type: cell-based; conditions: unit assumed
Method: as §1

P. mirabilis IFO 13300 = experiment: as above; type: cell-based; conditions: unit assumed
Method: as §1

P. rettgeri IFO 13501 = experiment: as above; type: cell-based; conditions: unit assumed
Method: as §1

P. vulgaris IFO 3851 = experiment: as above; type: cell-based; conditions: unit assumed
Method: as §1

S. aureus 209P = experiment: as above; type: cell-based; conditions: unit assumed
Method: as §1

S. epidermidis IFO 12993 = experiment: as above; type: cell-based; conditions: unit assumed
Method: as §1

S. marcescens IFO 12648 = experiment: as above; type: cell-based; conditions: unit assumed
Method: as §1

S. typhimurium LT-2 = experiment: as above; type: cell-based; conditions: unit assumed
Method: as §1

TO-101 = experiment: as above; type: cell-based; conditions: TO-101 (listed under S. marcescens); unit assumed
Method: as §1

X. maltophilia IFO 14161 = experiment: as above; type: cell-based; conditions: unit assumed
Method: as §1

[4] = background art; cited from earlier work
[5] = L1210 cells, 37° C., a day, MTT, read-out: IC50

SMILES	IC50 [1, 5] [mg/L]	MIC [3] [mg/L]	MIC (A. faecalis IFO 13111) [mg/L]	MIC (B. cereus IFO 13494) [mg/L]	MIC (B. subtilis ATCC 6633) [mg/L]	MIC (C. freundii IFO 12681) [mg/L]	MIC (CSJ 1922) [mg/L]	MIC (E. aeruginosa IFO 13534) [mg/L]	MIC (E. cloacae IFO 3320) [mg/L]	MIC (E. coli NIHJ JC-2) [mg/L]	MIC (JU-5) [mg/L]	MIC (K. pneumoniae B-54) [mg/L]	MIC (M. morganii IFO 3848) [mg/L]	MIC (MRSA RN-10) [mg/L]	MIC (P. aeruginosa GNB-139) [mg/L]	MIC (P. mirabilis IFO 13300) [mg/L]	MIC (P. rettgeri IFO 13501) [mg/L]	MIC (P. vulgaris IFO 3851) [mg/L]	MIC (S. aureus 209P) [mg/L]	MIC (S. epidermidis IFO 12993) [mg/L]	further results
CC1COc2c(N3CCN(C)CC3)c(F)cc3c(=O)c(C(=O)O)cn1c23 (stereo not shown) [Ofloxacin, reference compound]	195 (≈ 540 µM)																				viability at 48 h [2]: 69%
COc1c(C2(N)CCC2)c(F)cc2c(=O)c(C(=O)O)cn(C3CC3)c12.Cl [Ex. 23, 7-(1-aminocyclobutyl)-1-cyclopropyl-6-fluoro-8-methoxy-1,4-dihydro-4-oxo-3-quinolinecarboxylic acid hydrochloride]		1.56	1.56	0.78	0.1	0.2	0.2	0.39	0.1	0.2	0.39	0.2	0.1	0.78	3.13	0.39	0.39	0.2	0.78	1.56	MIC (S. marcescens IFO 12648): 0.78 mg/L; MIC (S. typhimurium LT-2): 0.39 mg/L; MIC (TO-101): 0.39 mg/L; MIC (X. maltophilia IFO 14161): 0.78 mg/L
CCn1cc(C(=O)O)c(=O)c2cc(F)c(N3CCNCC3)cc21 [norfloxacin]																					solubility under physiological conditions [4]: poor solubility
COc1c(C2(N)CCOCC2)c(F)cc2c(=O)c(C(=O)O)cn(C3CC3)c12.Cl [Ex. 18, 7-(4-amino-2,3,5,6-tetrahydropyran-4-yl)-1-cyclopropyl-6-fluoro-8-methoxy-1,4-dihydro-4-oxo-3-quinolinecarboxylic acid hydrochloride]	> 800																				
CCn1cc(C(=O)O)c(=O)c2cc(F)c(N3CCNCC3)nc21 [enoxacin]																					solubility under physiological conditions [4]: poor solubility
COc1c(C2(N)CCCC2)c(F)cc2c(=O)c(C(=O)O)cn(C3CC3)c12.Cl [Ex. 16, 7-(1-aminocyclopentyl)-1-cyclopropyl-6-fluoro-8-methoxy-1,4-dihydro-4-oxo-3-quinolinecarboxylic acid hydrochloride]	399	0.78	1.56	0.78	0.1	0.2	0.2	0.39	0.1	0.39	0.39	0.2	0.2	1.56	3.13	0.2	0.2	0.2	1.56	3.13	MIC (S. marcescens IFO 12648): 0.39 mg/L; MIC (S. typhimurium LT-2): 0.39 mg/L; MIC (TO-101): 0.39 mg/L; MIC (X. maltophilia IFO 14161): 0.78 mg/L
COc1c(C2(N)CC2)c(F)cc2c(=O)c(C(=O)O)cn(C3CC3)c12.Cl [Ex. 26, 7-(1-aminocyclopropyl)-1-cyclopropyl-6-fluoro-8-methoxy-1,4-dihydro-4-oxo-3-quinolinecarboxylic acid hydrochloride]	323	0.78	1.56	0.2	0.05	0.1	0.1	0.2	0.025	0.2	0.2	0.1	0.05	0.39	0.78	0.05	0.2	0.1	0.39	0.78	MIC (S. marcescens IFO 12648): 0.2 mg/L; MIC (S. typhimurium LT-2): 0.2 mg/L; MIC (TO-101): 0.2 mg/L; MIC (X. maltophilia IFO 14161): 0.78 mg/L; viability at 48 h [2]: > 100%
COc1c(C2(N)CCCCC2)c(F)cc2c(=O)c(C(=O)O)cn(C3CC3)c12.Cl [Ex. 17, 7-(1-aminocyclohexyl)-1-cyclopropyl-6-fluoro-8-methoxy-1,4-dihydro-4-oxo-3-quinolinecarboxylic acid hydrochloride]																					IC50 ([1]; L1210): 399 mg/L
O=C(O)c1cn(C2CC2)c2cc(N3CCNCC3)c(F)cc2c1=O [Ciprofloxacin, reference compound]	77 (≈ 232 µM)																				
